The experiment concerns SW1353. The experiment can be described thus: relative viability vs DMSO control (72 h) (fraction); higher = more viable cells. In outline:
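Sarcoma cell lines were plated in 384 wells to reach 80–90% confluence, treated after 24 h with 2.5 µl of serially diluted compound and held 72 h at 37 °C, 5% CO2. Relative viability was taken as percent growth from ATPLite readings, averaged over up to triplicate wells. The values were rescaled so that 1 marks full and 0 marks none.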

± gives the standard deviation of the averaged measurements.

Consider `COc1c(OCCCN2CCOCC2)ccc2c1N=C(NC(=O)c1cnc(N)nc1)N1CCN=C21` [Copanlisib], for which the relative viability came out at 1.08 ± 0.053 (0.00017 µM); 1.05 ± 0.054 (0.00051 µM); 1.01 ± 0.025 (0.00152 µM); 0.917 ± 0.011 (0.00457 µM); 0.845 ± 0.033 (0.01372 µM); 0.743 ± 0.047 (0.04115 µM). This compound displayed a relative viability (0.1235 µM) of 0.635 ± 0.045; a relative viability (0.3704 µM) of 0.518 ± 0.011; a relative viability (1.111 µM) of 0.441 ± 0.015; a relative viability (3.333 µM) of 0.412 ± 0.03; a relative viability (10 µM) of 0.364 ± 0.017.

On to `CN1CCN(c2ccc3nc(-c4c(N)c5c(F)cccc5[nH]c4=O)[nH]c3c2)CC1` [Dovitinib], for which the relative viability came to 1.08 ± 0.036 (0.00017 µM); 1.09 ± 0.015 (0.00051 µM); 1.04 ± 0.04 (0.00152 µM); 1.07 ± 0.019 (0.00457 µM); 1.06 ± 0.014 (0.01372 µM); 1.01 ± 0.03 (0.04115 µM). Also, the relative viability stood at 1.01 ± 0.048 (0.1235 µM); 0.959 ± 0.036 (0.3704 µM); 0.749 ± 0.017 (1.111 µM); 0.53 ± 0.043 (3.333 µM); 0.06 ± 0.0053 (10 µM).

With `COCc1c(-c2cc3cc(C)cc(OC)c3s2)c2c(N)ncnn2c1CN1CCNC(=O)C1` [Rogaratinib], the relative viability was 1.075 ± 0.01 (0.00017 µM); 1.03 ± 0.021 (0.00051 µM); 0.977 ± 0.025 (0.00152 µM); 1.01 ± 0.036 (0.00457 µM); 0.964 ± 0.032 (0.01372 µM); 0.901 ± 0.028 (0.04115 µM). The relative viability came to 0.879 ± 0.0097 (0.1235 µM); 0.819 ± 0.031 (0.3704 µM); 0.795 ± 0.014 (1.111 µM); 0.757 ± 0.013 (3.333 µM); 0.691 ± 0.021 (10 µM).

`CN1CCC(COc2cnc(-c3cccc(Cn4nc(-c5cccc(C#N)c5)ccc4=O)c3)nc2)CC1` [Tepotinib] showed a relative viability (0.00017 µM) of 1.025 ± 0.0083; a relative viability (0.00051 µM) of 1.02 ± 0.015; a relative viability (0.00152 µM) of 1.01 ± 0.021; a relative viability (0.00457 µM) of 1.01 ± 0.018; a relative viability (0.01372 µM) of 0.984 ± 0.028; a relative viability (0.04115 µM) of 0.988 ± 0.035. Further, the relative viability reads like this: (0.1235 µM) 0.951 ± 0.029; (0.3704 µM) 0.976 ± 0.039; (1.111 µM) 0.93 ± 0.046; (3.333 µM) 0.977 ± 0.027; (10 µM) 0.573 ± 0.17.

The record behind these values is the supplement of paper PMC10883282.
